From patent publication US8435538B2, “Anti-atheroma vaccine” (Thrombosis Research Institute, priority 2008, dated 2013)
Where “and” joins values, the source holds several entries; their conditions need not be identical. Identical values can stand only once. Ends that are not written are not given here.

How the values were obtained:
[1] = test system: Apob^tm2Sgy Ldlr^tm1Her/J KO-mice; test: RIMMS immunization, serum IgG titre by ELISA, KO-mouse model; format: in vivo; conditions: titre = highest serum dilution giving OD (450 nm) ≧1
Method: The ability of the recombinant immunogens to generate an immune response in BALB/C mice models, C57/BL6 mice models and Apob^tm2Sgy Ldlr^tm1Her/J KO-mice models. Mice were immunized using a repetitive, multiple site immunization strategy (RIMMS). Groups of 10 of 6-8-week-old BALB/c mice were inoculated with 4 μg of recombinant immunogen mixed with Freund's adjuvant 5 times respectively. The immunization was carried out subcutaneously into 8 sites on days 0, 2, 5, 7 and 9. On day 12 and 21 blood sample will be collected to test the antibody response. […]
Serum samples of immunized and naïve mice were tested for IgG antibodies using OD values at a dilution of 1:100 (or 200) on ELISA plates coated with antigens. Cut-off value for positivity was calculated as mean OD of naïve mouse sera+3×SD. Serum samples showing higher OD on antigen than on control antigen are considered positive, the other is determined by the highest dilution of serum giving an OD reading (at 450 nm)≧1. In this regard, titre can be assessed as non-immunoreactivity (<200), low immunoreactivity (200≦titre<800), good immunoreactivity (800≦titre<3200) and very good immunoreactivity ((titre 3200)

ApoB1 peptide = test: Peptide-specific antibody response in sera by ELISA after immunization with KLH conjugates, antigen ApoB1 peptide; format: in vivo, mice
Description: (§1) Apob^tm2SgyLdlr^tm1Her/J mice were immunized with combinations of ApoB and hHSP epitopes conjugated to keyhole limpet hemocyanin (KLH) as a carrier protein. The peptides were given either in combination, as a bi-specific immunogen, or in a single form, together with complete/incomplete Freund's adjuvant. Mice were fed with high-fat diet for 7 weeks then sacrificed. Peptide-specific antibody responses were detected in the sera by ELISA.

hHSP60 peptide = test: Peptide-specific antibody response in sera by ELISA after immunization with KLH conjugates, antigen hHSP60 peptide; format: in vivo, mice
Description: as §1

[2] = test system: Apob^tm2SgyLdlr^tm1Her/J mice; test: Histological analysis of atherosclerotic lesions in the aortic sinus of immunized mice; format: in vivo
Description: LDL receptor-deficient mice expressing ApoB-100 were immunized with a combination of two peptides derived from ApoB1 ([…], SEQ ID NO:25) and hHSP60 (AELKKQSKPVT, SEQ ID NO:26).
as §1
The lesions were 14.66% smaller following immunization with ApoB1 peptide alone (FIG. 5B), and 21.15% smaller after immunization with hHSP60 peptide alone (FIG. 5C) than in control mice.

[3] = test system: macrophages (CD68+ cells); test: Infiltration of macrophages into atherosclerotic lesions, anti-CD68 staining; format: in vivo; conditions: compared with mice immunized with either HSP60 or apoB1 alone; FIG. 6
Description: Infiltration of macrophages into atherosclerotic lesions in the Apob^tm2SgyLdlr^tm1Her/J mice were quantified by staining with anti-CD68. Sections of the tissue sample (5 μm thick) were stained with hematoxylin-eosin (H.E.) and examined under a light microscope. Macrophage levels were compared in a sample obtained from mice immunized with adjuvant only (control), mice immunized with ApoB only, mice immunized with hHSP60 only and mice immunized with the bi-specific ApoB1+hHSP60 immunogen.

ApoB1 + hHSP60-KLH: combination of ApoB1 and hHSP60 peptides conjugated to KLH, bi-specific immunogen (chain 1 IEIGLEGKGFEPTLEALFGK; chain 2 AELKKQSKPVT; also: peptides conjugated to KLH; listed as Homo sapiens)
Immune response on KO- mouse model [1]: Very Good (very good immunoreactivity ((titre 3200)) | OD at 1:100 serum dilution, ELISA antigen ApoB1 peptide, Mean (ApoB1 peptide; Week 8, group mean): 1.333 | OD at 1:100 serum dilution, ELISA antigen ApoB1 peptide (ApoB1 peptide; Week 8, individual mouse): 1.227 and 1.546 and 1.449 and 1.437 and 1.142 and 1.229 and 1.303 | OD at 1:100 serum dilution, ELISA antigen hHSP60 peptide, Mean (hHSP60 peptide; Week 8, group mean): 1.366 | OD at 1:100 serum dilution, ELISA antigen hHSP60 peptide (hHSP60 peptide; Week 8, individual mouse): 1.368 and 1.405 and 1.556 and 1.282 and 1.215 and 1.338 and 1.396 | protection from progression of atherosclerotic lesion ([2]; LDL receptor-deficient mice expressing ApoB-100): synergistic protection | atherosclerotic lesions in the aortic sinus smaller in size than in control mice ([2]; vs adjuvant control, high-fat diet for 7 weeks): 41.34% | number of macrophages (CD68+ cells) found within lesions of atherosclerosis [3]: fewer
